Key:
U251 (Glioblastoma) = experiment: 3H-thymidine incorporation cytotoxicity assay, U251; type: cell-based, human; settings: U251, 24 h
Method: (§1) In vitro efficacy screening has been performed using GI147211 and liposomal formulations of GI147211. […] Standard tumor cell-based cytototoxicity assays assessing ^3H-thymidine incorporation were performed.
(§2) Tumor cells were seeded into 96-well tissue culture plates (1×10^4 cells/well)≡4 h prior to experimentation. […] Positive and negative (Tris treated) control groups were included on each assay plate. Tumor cells were then labeled with 0.25 μCi of [methyl-^3H] thymidine and incubated for 42 h under tissue culture conditions (37° C., 5% CO2, 100% relative humidity), except for C6, U251, A673 and B16-F1 cells which were incubated for 24 h. Cells were then lysed, harvested onto glass-fiber filters and unincorporated [methyl-^3H] thymidine removed by filter washing. Filters were processed for scintillation counting and cpm-^3H/well determined. […] Data are presented from multiple sets of experimentation, involving multiple liposomal formulations of GI147211.

U87-MG (Astrocytoma) = experiment: 3H-thymidine incorporation cytotoxicity assay, U87-MG; type: cell-based, human; settings: 42 h
Method: as §1, §2

BT-20 (Breast) = experiment: 3H-thymidine incorporation cytotoxicity assay, BT-20; type: cell-based, human; settings: BT-20, 42 h
Method: as §1, §2

ES2 Tumor Xenograft = experiment: Repeat dose efficacy at equal toxic doses, ES2 xenograft; settings: ES2, 16 mg/kg, days 1, 8 and 15
Method: In all the studies performed, subcutaneous tumors implanted on the anterior flank of nude mice were allowed to grow to an established size of 200+/−50 mm^3 prior to dosing drugs.
Drugs were dosed on days 1,8 and 15.

ES-2 (ovarian carcinoma) = experiment: 3H-thymidine incorporation cytotoxicity assay, ES-2; type: cell-based, human; settings: ES-2, 42 h
Method: as §1, §2

[1] = tested on: SKOV-3 (ovarian carcinoma); experiment: 3H-thymidine incorporation cytotoxicity assay, SKOV-3; type: cell-based, human; settings: SKOV-3, 42 h
Method: as §1, §2

[2] = tested on: KBV (oralpharyngial carcinoma, vincristine resistant phenotype); experiment: 3H-thymidine incorporation cytotoxicity assay, KBV; type: cell-based, human; settings: 42 h
Method: as §1, §2

[3] = tested on: DU-145 (prostate carcinoma); experiment: 3H-thymidine incorporation cytotoxicity assay, DU-145; type: cell-based, human; settings: DU-145, 42 h
Method: as §1, §2

[4] = tested on: B16-F1 (Melanoma, murine); experiment: 3H-thymidine incorporation cytotoxicity assay, B16-F1; type: cell-based; settings: B16-F1, 24 h
Method: as §1, §2

A673 (Rhabdomyosarcoma) = experiment: 3H-thymidine incorporation cytotoxicity assay, A673; type: cell-based, human; settings: A673, 24 h
Method: as §1, §2

[5] = tested on: H460 (Lung, Non-Small Cell); experiment: 3H-thymidine incorporation cytotoxicity assay, H460; type: cell-based, human; settings: H460, 42 h
Method: as §1, §2

[6] = tested on: KB (oralpharyngial carcinoma); experiment: 3H-thymidine incorporation cytotoxicity assay, KB; type: cell-based, human; settings: 42 h
Method: as §1, §2

MCF-7 (Breast) = experiment: 3H-thymidine incorporation cytotoxicity assay, MCF-7; type: cell-based, human; settings: MCF-7, 42 h
Method: as §1, §2

HT-29 (Colon) = experiment: 3H-thymidine incorporation cytotoxicity assay, HT-29; type: cell-based, human; settings: HT-29, 42 h
Method: as §1, §2

U937 (Lymphoma) = experiment: 3H-thymidine incorporation cytotoxicity assay, U937; type: cell-based, human; settings: U937, 42 h
Method: as §1, §2

LOX (melanoma) = experiment: 3H-thymidine incorporation cytotoxicity assay, LOX; type: cell-based, human; settings: 42 h
Method: as §1, §2

MDA-MB-468 (Breast) = experiment: 3H-thymidine incorporation cytotoxicity assay, MDA-MB-468; type: cell-based, human; settings: MDA-MB-468, 42 h
Method: as §1, §2

LS-513 (Cecum) = experiment: 3H-thymidine incorporation cytotoxicity assay, LS-513; type: cell-based, human; settings: LS-513, 42 h
Method: as §1, §2

CC[C@@]1(O)C(=O)OCc2c1cc1n(c2=O)Cc2cc3c(CN(C)C)c(O)ccc3nc2-1 [Topotecan]
Median IC50 (U251 (Glioblastoma)): 0.0131 µg/mL
Median IC50 (U87-MG (Astrocytoma)): 0.0216 µg/mL
Median IC50 (BT-20 (Breast)): 0.0035 µg/mL
Cures (ES2 Tumor Xenograft): 0
Log Cell Kill (ES2 Tumor Xenograft): 0.58
Maximum Body Weight loss (ES2 Tumor Xenograft): 16%
T − C (to reach 400% tumor volume increase) (ES2 Tumor Xenograft): 7.4 days
Toxic Deaths (ES2 Tumor Xenograft): 3
Median IC50 (ES-2 (ovarian carcinoma)): 0.00389 µg/mL
Median IC50 [1]: 0.00518 µg/mL
Median IC50 [2]: 0.611 µg/mL
Median IC50 [3]: 0.0135 µg/mL
Median IC50 [4]: 0.393 µg/mL
Median IC50 (A673 (Rhabdomyosarcoma)): 0.00604 µg/mL
Median IC50 [5]: 0.0209 µg/mL
Median IC50 [6]: 0.0336 µg/mL
Median IC50 (MCF-7 (Breast)): 0.23 µg/mL
Median IC50 (HT-29 (Colon)): 0.00415 µg/mL
Median IC50 (U937 (Lymphoma)): 0.00903 µg/mL
Median IC50 (LOX (melanoma)): 0.00492 µg/mL
Median IC50 (MDA-MB-468 (Breast)): 0.0473 µg/mL
Median IC50 (LS-513 (Cecum)): 0.016 µg/mL

— patent US6740335B1, “Liposomal camptothecin formulations” (priority 1997, dated 2004)
